Experimental findings from patent publication US9382254B2, “Compounds and pharmaceutical compositions thereof for the treatment of cystic fibrosis” (Galapagos NV, priority 2013, dated 2016) are described below.

pEC50: −log10 of the molar value.

Holding throughout (assay type): cell-based
Assay [1] has as its target T1, CFTR G551D mutant (Homo sapiens, UniProt P13569, G551D).
T1 construct: expressed in transfected cells; host or cells: HEK293 (reverse transfection with plasmid)
The assay is described as follows: YFP-halide influx assay for the CFTR-G551D mutation. As to conditions: HEK293 cells, forskolin 10.67 μM. The gist of the method:
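HEK293 cells reverse-transfected with CFTR G551D and YFP H148Q/I152L/F47L halide sensor, expressed 24 h at 37 °C. Iodide-induced fluorescence quench recorded 7 s after I− injection; response = 1−F/F0, with EC50 from plot against compound concentration.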

Assay [2] has as its target T2, CFTR ΔF508 mutant (Homo sapiens, UniProt P13569, DEL508-508).
T2 construct: expressed in transfected cells; host or cells: CFBE41o- (adenoviral transduction)
The assay is described as follows: YFP-halide influx assay for the CFTR-ΔF508 mutation (384 well, FDSS/μCell). As to conditions: CFBE41o- cells, CFTR-ΔF508, 1×D-PBS, fluorescence after 36 seconds. The gist of the method:
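Potentiator read-out as 1−F/F0, F taken 36 s after iodide addition, EC50 fitted against compound concentration. Cells: CFBE41o- expressing ΔF508 CFTR plus halide-sensitive YFP via adenovirus, rescued by 27 °C for 24 h or 24 h modulator at 37 °C.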

Assay [3] addresses T2, CFTR ΔF508 mutant. The assay is described as follows: YFP-halide influx assay for the CFTR-ΔF508 mutation, PBS buffer (96 well). Particulars: CFBE41o- cells, forskolin 10.67 μM. An excerpt: The YFP halide influx assay measures the functionality of the cystic fibrosis Transmembrane Conductance regulator (CFTR) channels in the cystic fibrosis bronchial epithelium cell line CFBE41o-. The assay is used to evaluate the capacity of compounds to increase the open probability of existing CFTR channels in the membrane. It makes use of the observation that the yellow fluorescent protein (YFP) variant YFP H148Q, I152L has its fluorescence substantially quenched by halide ions like Cl^− and I^−. (Galietta, Haggie, & Verkman, 2001) (Nagai, et al., 2002)
For this purpose, CFBE41o-cells are seeded in 96 well plates (6000 CFBE cells/well). One day after seeding, the CFBE cells are transduced with adenoviral vectors that direct the expression of the CFTR ΔF508 mutant and of the YFP reporter. Cells are incubated at 27° C., 5% CO2 for 24 hours so as to allow for the proper folding and migration to the membrane of the CFTR channel or treated with a CFTR modulator during 24 hours at 37° C.
The I^− induced quenching of fluorescence is recorded immediately after injection of I^− for 7 seconds. The capacity of a compound to increase the channel opening is directly correlated with the decrease in fluorescence, and is expressed as (1-(fluorescence after 7 seconds (F)/fluorescence before injection (F0))) and an EC50 can be derived from a (1-F/F0) vs compound concentration plot.

Broadly, the pEC50 is −log10 of the EC50, conventionally taken in molar units. Low readings indicate a high EC50, high ones a low EC50.

T2 sequence (P13569 with tags, fused parts or gaps DEL508-508): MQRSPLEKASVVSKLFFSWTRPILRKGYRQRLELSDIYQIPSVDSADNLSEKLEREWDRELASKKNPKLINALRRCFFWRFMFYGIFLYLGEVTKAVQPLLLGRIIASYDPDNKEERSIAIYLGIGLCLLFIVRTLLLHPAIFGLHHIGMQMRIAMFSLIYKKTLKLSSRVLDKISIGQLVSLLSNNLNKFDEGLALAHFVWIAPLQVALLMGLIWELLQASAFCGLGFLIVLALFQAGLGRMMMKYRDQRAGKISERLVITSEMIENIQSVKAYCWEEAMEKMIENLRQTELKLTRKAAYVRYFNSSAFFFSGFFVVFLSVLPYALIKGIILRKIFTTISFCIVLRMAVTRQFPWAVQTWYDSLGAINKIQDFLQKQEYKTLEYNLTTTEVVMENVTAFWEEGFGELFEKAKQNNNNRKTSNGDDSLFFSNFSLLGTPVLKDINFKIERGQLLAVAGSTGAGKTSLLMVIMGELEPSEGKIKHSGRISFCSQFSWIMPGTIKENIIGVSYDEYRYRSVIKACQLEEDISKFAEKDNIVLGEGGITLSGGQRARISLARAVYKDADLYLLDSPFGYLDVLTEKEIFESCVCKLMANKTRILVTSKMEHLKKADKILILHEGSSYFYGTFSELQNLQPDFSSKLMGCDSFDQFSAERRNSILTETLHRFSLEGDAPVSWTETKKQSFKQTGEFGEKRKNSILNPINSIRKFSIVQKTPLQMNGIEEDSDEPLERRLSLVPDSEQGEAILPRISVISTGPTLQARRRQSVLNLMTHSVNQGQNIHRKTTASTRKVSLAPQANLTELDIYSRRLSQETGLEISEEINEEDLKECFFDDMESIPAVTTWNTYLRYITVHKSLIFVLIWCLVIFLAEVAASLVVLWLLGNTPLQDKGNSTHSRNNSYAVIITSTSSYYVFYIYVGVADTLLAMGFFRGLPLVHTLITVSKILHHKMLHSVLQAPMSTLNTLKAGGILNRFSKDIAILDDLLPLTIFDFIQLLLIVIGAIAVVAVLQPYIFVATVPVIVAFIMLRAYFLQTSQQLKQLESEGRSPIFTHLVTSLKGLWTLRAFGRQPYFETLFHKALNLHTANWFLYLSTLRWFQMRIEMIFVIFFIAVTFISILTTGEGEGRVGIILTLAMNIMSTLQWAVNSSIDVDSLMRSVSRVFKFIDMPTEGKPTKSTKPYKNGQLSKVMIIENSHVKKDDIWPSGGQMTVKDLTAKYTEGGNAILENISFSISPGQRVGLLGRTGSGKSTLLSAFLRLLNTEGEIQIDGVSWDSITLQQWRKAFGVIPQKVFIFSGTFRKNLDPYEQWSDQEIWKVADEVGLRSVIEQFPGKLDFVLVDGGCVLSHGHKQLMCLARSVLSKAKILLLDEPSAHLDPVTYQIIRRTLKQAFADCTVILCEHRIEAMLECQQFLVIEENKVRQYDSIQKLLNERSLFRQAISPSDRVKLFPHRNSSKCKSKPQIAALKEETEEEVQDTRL
T1 sequence (P13569 whole entry G551D): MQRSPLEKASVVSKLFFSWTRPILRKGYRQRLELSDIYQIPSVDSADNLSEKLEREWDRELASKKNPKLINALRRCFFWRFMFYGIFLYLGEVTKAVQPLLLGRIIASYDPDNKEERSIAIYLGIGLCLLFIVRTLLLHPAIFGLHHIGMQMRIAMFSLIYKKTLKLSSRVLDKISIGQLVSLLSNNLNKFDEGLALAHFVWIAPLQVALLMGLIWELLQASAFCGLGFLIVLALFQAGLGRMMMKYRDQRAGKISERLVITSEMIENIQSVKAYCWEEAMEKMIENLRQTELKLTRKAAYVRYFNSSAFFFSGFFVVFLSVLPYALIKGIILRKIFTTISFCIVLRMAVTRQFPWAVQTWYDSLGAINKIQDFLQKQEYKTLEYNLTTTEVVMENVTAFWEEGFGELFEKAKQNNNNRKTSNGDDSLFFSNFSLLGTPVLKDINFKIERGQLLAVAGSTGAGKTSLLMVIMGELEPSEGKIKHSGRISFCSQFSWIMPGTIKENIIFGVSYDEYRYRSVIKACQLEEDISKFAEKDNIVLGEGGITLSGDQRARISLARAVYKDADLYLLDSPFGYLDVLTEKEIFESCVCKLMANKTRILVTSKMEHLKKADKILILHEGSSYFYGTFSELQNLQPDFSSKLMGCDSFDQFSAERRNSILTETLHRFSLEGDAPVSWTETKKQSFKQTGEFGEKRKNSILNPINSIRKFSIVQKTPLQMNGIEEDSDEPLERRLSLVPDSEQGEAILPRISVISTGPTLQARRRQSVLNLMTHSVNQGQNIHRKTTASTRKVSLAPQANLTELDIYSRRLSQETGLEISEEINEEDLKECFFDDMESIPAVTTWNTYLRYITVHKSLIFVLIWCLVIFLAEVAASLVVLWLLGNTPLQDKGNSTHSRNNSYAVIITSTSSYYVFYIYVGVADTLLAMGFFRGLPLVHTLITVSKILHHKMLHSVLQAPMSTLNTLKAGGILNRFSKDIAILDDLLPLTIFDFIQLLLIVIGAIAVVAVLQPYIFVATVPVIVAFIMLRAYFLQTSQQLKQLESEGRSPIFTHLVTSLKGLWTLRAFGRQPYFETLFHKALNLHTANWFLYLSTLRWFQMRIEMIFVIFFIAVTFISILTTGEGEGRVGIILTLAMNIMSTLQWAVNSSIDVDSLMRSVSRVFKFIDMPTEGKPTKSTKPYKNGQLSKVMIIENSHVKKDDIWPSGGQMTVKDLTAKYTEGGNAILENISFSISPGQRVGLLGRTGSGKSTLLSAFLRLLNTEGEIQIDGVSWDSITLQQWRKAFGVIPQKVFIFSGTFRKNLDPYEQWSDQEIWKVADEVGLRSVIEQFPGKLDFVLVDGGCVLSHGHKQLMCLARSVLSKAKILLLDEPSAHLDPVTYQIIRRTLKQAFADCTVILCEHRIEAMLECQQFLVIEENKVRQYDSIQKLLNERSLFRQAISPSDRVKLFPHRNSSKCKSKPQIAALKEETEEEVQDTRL

For `NC(=O)c1cc(S(=O)(=O)c2ccc(Cl)cc2)sc1NC(=O)C1(O)CC1` [Compound 225, 5-(4-chlorophenylsulfonyl)-2-(1-hydroxycyclopropanecarboxamido) thiophene-3-carboxamide], the figures for the negative logarithm of the EC50 (pEC50) in assay [1], in assay [2] and in assay [3] were 6.53, 7.58 and 7.44, respectively.
The matching figures for `NC(=O)c1cc(S(=O)(=O)c2cccc(F)c2)sc1NC(=O)C1(O)CC1` [Compound 227, 5-(3-fluorophenylsulfonyl)-2-(1-hydroxycyclopropanecarboxamido) thiophene-3-carboxamide]: 6.33, 7.41 and 7.38.
The matching figures for `CC(C)c1ccccc1S(=O)(=O)c1cc(C(N)=O)c(NC(=O)C2(O)CC2)s1` [Compound 228, 2-(1-hydroxycyclopropanecarboxamido)-5-(2-isopropylphenylsulfonyl) thiophene-3-carboxamide]: 7.03, 7.54 and 7.69.
The like results for `CN(Cc1ccc(F)cc1)S(=O)(=O)c1cc(C(N)=O)c(NC(=O)C2(O)CC2)s1` [Compound 231, 5-(N-(4-fluorobenzyl)-N-methylsulfamoyl)-2-(1-hydroxycyclopropanecarboxamido) thiophene-3-carboxamide] were, in that order, 6.17, 7.50 and 7.59.
With `CN(c1ccc(F)cc1)S(=O)(=O)c1cc(C(N)=O)c(NC(=O)C2(O)CC2)s1` [Compound 236, 5-(N-(4-fluorophenyl)-N-methylsulfamoyl)-2-(1-hydroxycyclopropanecarboxamido) thiophene-3-carboxamide], the pEC50 in assay [1] is 5.18; in assay [2], 7.60; in assay [3] it was 7.33.
Turning to `NC(=O)c1cc(S(=O)(=O)N2CCOc3ccccc32)sc1NC(=O)C1(O)CC1` [Compound 242, 5-(2H-benzo[b][1,4]oxazin-4(3H)-ylsulfonyl)-2-(1-hydroxycyclopropanecarboxamido) thiophene-3-carboxamide], the pEC50 is 6.79 in assay [1], 8.02 in assay [2] and 7.76 in assay [3].
The like results for `COc1ccc(S(=O)(=O)c2cc(C(N)=O)c(NC(=O)C3(O)CC3)s2)cc1` [Compound 245, 2-(1-hydroxycyclopropanecarboxamido)-5-(4-methoxyphenylsulfonyl) thiophene-3-carboxamide] were, in that order, 6.21, 6.95 and 7.22.
The matching figures for `COc1ccc(OC)c(S(=O)(=O)c2cc(C(N)=O)c(NC(=O)C3(O)CC3)s2)c1` [Compound 246, 5-(2,5-dimethoxyphenylsulfonyl)-2-(1-hydroxycyclopropanecarboxamido) thiophene-3-carboxamide]: 6.20, 7.12 and 7.11.
Take `NC(=O)c1cc(S(=O)(=O)c2c(Cl)cccc2Cl)sc1NC(=O)C1(O)CC1` [Compound 247, 5-(2,6-dichlorophenylsulfonyl)-2-(1-hydroxycyclopropanecarboxamido) thiophene-3-carboxamide]: the pEC50 was 6.95 in assay [1], 7.73 in assay [2] and 7.97 in assay [3].
In the case of `CC(O)C(=O)Nc1sc(S(=O)(=O)c2ccc(F)cc2)cc1C(N)=O` (stereo not shown) [Compound 248, 5-(4-fluorophenylsulfonyl)-2-(2-hydroxypropanamido) thiophene-3-carboxamide], the values for the pEC50 in assay [1], in assay [2] and in assay [3] were 5.86, 7.15 and 7.07, respectively.
For the compound `Cc1cccc(C)c1S(=O)(=O)c1cc(C(N)=O)c(NC(=O)C2(O)CC2)s1` [Compound 251, 5-(2,6-dimethylphenylsulfonyl)-2-(1-hydroxycyclopropanecarboxamido) thiophene-3-carboxamide], the values for the pEC50 in assay [1], in assay [2] and in assay [3] were 5.90, 7.33 and 7.68, respectively.
The like results for `CC(C)(CO)C(=O)Nc1sc(S(=O)(=O)c2ccc(F)cc2)cc1C(N)=O` [Compound 253, 5-(4-fluorophenylsulfonyl)-2-(3-hydroxy-2,2-dimethylpropanamido) thiophene-3-carboxamide] were, in that order, 5.48, 7.29 and 7.14.
In the case of `NC(=O)c1cc(S(=O)(=O)c2ccc(F)cc2F)sc1NC(=O)C1(O)CC1` [Compound 256, 5-(2,4-difluorophenylsulfonyl)-2-(1-hydroxycyclopropanecarboxamido) thiophene-3-carboxamide], the pEC50 in assay [1] is 5.75; in assay [2], 7.64; in assay [3] it was 7.58.
The matching figures for `NC(=O)c1cc(S(=O)(=O)c2ccccc2C(F)(F)F)sc1NC(=O)C1(O)CC1` [Compound 257, 2-(1-hydroxycyclopropanecarboxamido)-5-(2-(trifluoromethyl)phenylsulfonyl) thiophene-3-carboxamide]: 6.48, 7.58 and 7.79.
The matching figures for `CC1CN(S(=O)(=O)c2cc(C(N)=O)c(NC(=O)c3ccccc3C(F)(F)F)s2)C(C)(C)CO1` (stereo not shown) [Compound 263, 2-(2-(trifluoromethyl)benzamido)-5-(2,5,5-trimethylmorpholinosulfonyl) thiophene-3-carboxamide]: 5.48, 6.83 and 7.09.
As for `NC(=O)c1cc(S(=O)(=O)c2ccc(F)cc2Br)sc1NC(=O)C1(O)CC1` [Compound 264, 5-(2-bromo-4-fluorophenylsulfonyl)-2-(1-hydroxycyclopropanecarboxamido) thiophene-3-carboxamide], the pEC50 in assay [1] was 5.99; in assay [2], 7.71; in assay [3], 7.52.
Take `CC(C)Oc1cccc(S(=O)(=O)c2cc(C(N)=O)c(NC(=O)C(C)(C)O)s2)c1` [Compound 265, 2-(2-hydroxy-2-methylpropanamido)-5-(3-isopropoxyphenylsulfonyl) thiophene-3-carboxamide]: the pEC50 in assay [1] was 5.70; in assay [2], 7.04; in assay [3] it was 7.37.
The matching figures for `CC(C)(O)C(=O)Nc1sc(S(=O)(=O)c2cccc(OC(F)(F)F)c2)cc1C(N)=O` [Compound 269, 2-(2-hydroxy-2-methylpropanamido)-5-(3-(trifluoromethoxy)phenylsulfonyl) thiophene-3-carboxamide]: 6.03, 8.00 and 7.48.
For the compound `NC(=O)c1cc(S(=O)(=O)c2ccc(F)cc2)sc1NC(=O)C1CCCC1O` (stereo not shown) [Compound 272, 5-(4-fluorophenylsulfonyl)-2-(2-hydroxycyclopentanecarboxamido) thiophene-3-carboxamide], the pEC50 in assay [1] is 6.11; in assay [2] it was 6.99; in assay [3], 7.31.
The like results for `CC(CO)C(=O)Nc1sc(S(=O)(=O)c2ccc(F)cc2)cc1C(N)=O` (stereo not shown) [Compound 273, 5-(4-fluorophenylsulfonyl)-2-(3-hydroxy-2-methylpropanamido) thiophene-3-carboxamide] were, in that order, 5.51, 6.83 and 6.96.
The matching figures for `CC(C)Oc1ccc(S(=O)(=O)c2cc(C(N)=O)c(NC(=O)C(C)(C)O)s2)cc1` [Compound 279, 2-(2-hydroxy-2-methylpropanamido)-5-(4-isopropoxyphenylsulfonyl) thiophene-3-carboxamide]: 6.21, 6.94 and 7.26.
Turning to `NC(=O)c1cc(S(=O)(=O)c2ccc(F)cc2)sc1NC(=O)C1CCCCC1O` (stereo not shown) [Compound 280, 5-(4-fluorophenylsulfonyl)-2-(2-hydroxycyclohexanecarboxamido) thiophene-3-carboxamide], the figures for the pEC50 in assay [1], in assay [2] and in assay [3] were 5.78, 6.93 and 7.55, respectively.
`CC(C)(O)C(=O)Nc1sc(S(=O)(=O)N2CCC(F)(F)CC2)cc1C(N)=O` [Compound 308, 5-(4,4-difluoropiperidin-1-ylsulfonyl)-2-(2-hydroxy-2-methylpropanamido) thiophene-3-carboxamide]: the pEC50 in assay [1] was 5.99; in assay [3], 6.63.
For the compound `CC1(C)CN(S(=O)(=O)c2cc(C(N)=O)c(NC(=O)C(C)(C)O)s2)C1` [Compound 309, 5-(3,3-Dimethyl-azetidine-1-sulfonyl)-2-(2-hydroxy-2-methyl-propionylamino)-thiophene-3-carboxylic acid amide], the results for the negative logarithm of the EC50 (pEC50) in assay [1] and in assay [3] were 5.54 and 6.94, respectively.
